A word on the IC50: it is the concentration at which inhibition is half-maximal.

Drawing on patent US9012635B2, “Pyridone amides and analogs exhibiting anti-cancer and anti-proliferative activities” (Deciphera Pharmaceuticals, LLC, priority 2013, dated 2015), this text covers IC50 for 4 compounds.

Counter-ions that a name gives are not always drawn. Bounds are passed on as bounds.

One experiment concerns the target T1, FMS kinase (Homo sapiens, UniProt P07333).
T1 construct: purchased Millipore
T1 sequence (P07333 538-972): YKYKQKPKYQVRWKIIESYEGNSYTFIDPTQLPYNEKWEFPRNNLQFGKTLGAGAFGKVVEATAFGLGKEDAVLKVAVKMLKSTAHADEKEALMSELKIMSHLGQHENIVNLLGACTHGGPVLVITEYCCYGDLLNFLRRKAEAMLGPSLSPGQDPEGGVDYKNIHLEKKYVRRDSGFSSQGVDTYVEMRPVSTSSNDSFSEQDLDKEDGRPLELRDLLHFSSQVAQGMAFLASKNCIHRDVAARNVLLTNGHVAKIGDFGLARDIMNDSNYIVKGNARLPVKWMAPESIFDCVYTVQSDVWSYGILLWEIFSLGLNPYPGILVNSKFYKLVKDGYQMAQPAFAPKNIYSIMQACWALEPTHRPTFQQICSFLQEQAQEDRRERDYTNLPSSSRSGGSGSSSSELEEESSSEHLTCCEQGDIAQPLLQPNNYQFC
Nature of the experiment: FMS kinase assay (pyruvate kinase/lactate dehydrogenase coupled, A340). Format: biochemical. As to conditions: enzymatic assay, ATP 500 μM. On the procedure: Activity of FMS kinase was determined by following the production of ADP from the FMS kinase reaction with ATP and poly E4Y as substrates through coupling with the pyruvate kinase/lactate dehydrogenase system (e.g., Schindler et al. Science (2000) 289: 1938-1942). In this assay, the oxidation of NADH (thus the decrease at A340 nm) was continuously monitored spectrophometrically. The reaction mixture (100 μl) contained FMS (purchased from Millipore) (10 nM), polyE4Y (1 mg/mL), MgCl2 (10 mM), pyruvate kinase (4 units), lactate dehydrogenase (0.7 units), phosphoenol pyruvate (1 mM), and NADH (0.28 mM) and ATP (500 μM) in 90 mM Tris buffer containing 0.2% octyl-glucoside and 1% DMSO, pH 7.5. Immediately, the inhibition reaction was started by mixing serial diluted test compound with the above reaction mixture. The absorption at 340 nm was monitored continuously for 4 hours at 30° C. on Synergy 2 plate reader. The reaction rate was calculated using the 3 to 4 h time frame. Percent inhibition was obtained by comparison of reaction rate with that of a control (i.e. in the absence of test compound). IC50 values were calculated from a series of percent inhibition values determined at a range of inhibitor concentrations using software routines as implemented in the GraphPad Prism software package.

The next experiment relates to MKN-45 cells. Nature of the experiment: MKN-45 cell proliferation assay (resazurin). Format: cell-based. As to conditions: Homo sapiens, 67 h + 5 h resazurin. On the procedure: MKN-45 cells (catalog #JCRB0254) were obtained from the Japan Health Science Research Resources Bank, Osaka, Japan. Briefly, cells were grown in RPMI 1640 media supplemented with 10% characterized fetal bovine serum (Invitrogen, Carlsbad, Calif.) at 37° C., 5% CO2, 95% humidity. Cells were allowed to expand until reaching 70-95% confluency at which point they were subcultured or harvested for assay use.
A serial dilution of test compound was dispensed into a 96-well black clear bottom plate (Corning, Corning, N.Y.). Five thousand cells were added per well in 200 μL complete growth medium. Plates were incubated for 67 hours at 37° C., 5% CO2, 95% humidity. At the end of the incubation period 40 μL of a 440 μM solution of resazurin (Sigma, St. Louis, Mo.) in PBS was added to each well and plates were incubated for an additional 5 h at 37° C., 5% CO2, 95% humidity. Plates were read on a Synergy2 reader (Biotek, Winooski, Vt.) using an excitation of 540 nm and an emission of 600 nm. Data was analyzed using Prism software (GraphPad, San Diego, Calif.) to calculate IC50 values.
For orientation: Alamar Blue is a resazurin reagent that responds to reducing activity.

Experiment [1] deals with KDR kinase (Seq ID No. 3) (Homo sapiens, UniProt P35968, DEL940-989/E990V). Nature of the experiment: KDR kinase assay (assays K1, K2, K3). It is filed as biochemical. As to conditions: enzymatic assay; variant K1, K2 or K3 not given. On the procedure:
The activity of KDR kinase was determined by following the production of ADP from the kinase reaction through coupling with the pyruvate kinase/lactate dehydrogenase system (e.g., Schindler et al. Science 2000, 289, pp. 1938-1942). In this assay, the oxidation of NADH (thus the decrease at A340 nm) was continuously monitored spectrophotometrically. The reaction mixture (100 μl) contained KDR (Seq ID No. 3, 1.5 nM to 7.1 nM, nominal concentration), polyE4Y (1 mg/mL), pyruvate kinase (3.5 units), lactate dehydrogenase (5.5 units), phosphoenolpyruvate (1 mM), and NADH (0.28 mM) in 60 mM Tris buffer containing 0.13% octyl-glucoside, 13 mM MgCl2, 6.8 mM DTT, test compound, and 3.5% DMSO at pH 7.5. The reaction was initiated by adding ATP (0.2 mM, final concentration). The absorption at 340 nm was continuously monitored for 3 h at 30° C. on a Polarstar Optima plate reader (BMG) or instrument of similar capacity. The reaction rate was calculated using the 1 h to 2 h time frame. Percent inhibition was obtained by comparison of reaction rate with that of a control (i.e., with no test compound). IC50 values were calculated from a series of percent inhibition values determined at a range of inhibitor concentrations using software routines as implemented in the GraphPad Prism software package.
KDR kinase assay K2 is the same as for assay K1 except that (1) a nominal concentration of 2.1 nM of enzyme was employed (2) the reaction was pre-incubated with test compound at 30° C. for 2 h prior to initiation with ATP and (3) 1.0 mM ATP (final concentration) was used to initiate the reaction.
KDR kinase assay K3 is the same as for assay K1 except that (1) a nominal concentration of 1.1 nM of enzyme was employed, (2) the buffer components per 100 μl reaction mixture were as follows: 75 mM Tris buffer containing 0.066% octyl-glucoside, 17 mM MgCl2, and 1% DMSO at pH 7.5, (3) the final concentration of DTT was 0.66 mM, (4) the reaction was pre-incubated with test compound at 30° C. for 1 h prior to initiation with ATP, and (5) 1.0 mM ATP (final concentration) was used to initiate the reaction.

Sequence of KDR kinase (Seq ID No. 3) (P35968 with tags, fused parts or gaps DEL940-989/E990V): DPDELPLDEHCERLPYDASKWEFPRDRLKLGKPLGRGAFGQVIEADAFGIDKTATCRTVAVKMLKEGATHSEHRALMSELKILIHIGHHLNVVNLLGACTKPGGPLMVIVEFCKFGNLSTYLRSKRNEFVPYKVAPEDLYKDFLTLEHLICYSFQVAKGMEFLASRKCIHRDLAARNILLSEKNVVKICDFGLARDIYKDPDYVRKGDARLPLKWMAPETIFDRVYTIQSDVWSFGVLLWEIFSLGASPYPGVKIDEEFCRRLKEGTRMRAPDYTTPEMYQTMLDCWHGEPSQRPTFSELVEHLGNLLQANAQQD

Regarding `Cn1cc(-c2cc(Oc3cc(F)c(NC(=O)c4cccn(-c5ccc(F)cc5)c4=O)cc3F)ccn2)cn1` [Example 1, N-(2,5-difluoro-4-((2-(1-methyl-1H-pyrazol-4-yl)pyridin-4-yl)oxy)phenyl)-1-(4-fluorophenyl)-2-oxo-1,2-dihydropyridine-3-carboxamide], the 50% inhibitory concentration (IC50) on FMS kinase was at most 100 nM; with MKN-45 cells, at most 100 nM; in experiment [1], over 1000 nM.
As for `CCOc1ccn(-c2ccc(F)cc2)c(=O)c1C(=O)Nc1cc(F)c(Oc2ccnc(-c3cnn(C)c3)c2)cc1F` [Example 2, N-(2,5-difluoro-4-(2-(1-methyl-1H-pyrazol-4-yl)pyridin-4-yloxy)phenyl)-4-ethoxy-1-(4-fluorophenyl)-2-oxo-1,2-dihydropyridine-3-carboxamide], the figures for the IC50 (at FMS kinase; in the experiment on MKN-45 cells; in experiment [1]) were 100 to 1000 nM, at most 100 nM and over 1000 nM, respectively.
`O=C(Nc1cc(F)c(Oc2ccnc(-c3cnn(CCO)c3)c2)cc1F)c1cccn(-c2ccc(F)cc2)c1=O` [Example 3, N-(2,5-difluoro-4-((2-(1-(2-hydroxyethyl)-1H-pyrazol-4-yl)pyridin-4-yl)oxy)phenyl)-1-(4-fluorophenyl)-2-oxo-1,2-dihydropyridine-3-carboxamide hydrochloride]: the IC50 on FMS kinase is at most 100 nM; in experiment [1] it was over 1000 nM.
As for `CCNc1ccn(-c2ccc(F)cc2)c(=O)c1C(=O)Nc1cc(F)c(Oc2ccnc(-c3cnn(C)c3)c2)cc1F` [Example 5, N-(2,5-difluoro-4-((2-(1-methyl-1H-pyrazol-4-yl)pyridin-4-yl)oxy)phenyl)-4-(ethylamino)-1-(4-fluorophenyl)-2-oxo-1,2-dihydropyridine-3-carboxamide], the figures for the IC50 (at FMS kinase; in the experiment on MKN-45 cells; in experiment [1]) were 100 to 1000 nM, 100 to 1000 nM and over 1000 nM, respectively.
